{"source": "paper PMC7938330", "about": "(Toxicology in vitro : an international journal published in …, 2020)", "molecular_target": "Complex V (ATP synthase complex) (Bos taurus, UniProt P00829+P05631+P19483)", "test": "immunocapture-based OXPHOS activity assay", "format": "biochemical"}
{"smiles": "C1CCC(C(CC2CCCCN2)C2CCCCC2)CC1", "note": "(stereo not shown) [perhexiline]", "values": [{"measurement": "IC50", "value": 10, "unit": "nM"}]}
